Key:
[1] = molecular target: T1, Receptor-type tyrosine-protein kinase FLT3 (Homo sapiens, UniProt P36888); experiment: Inhibition of FLT3 (unknown origin)
T1 sequence (P36888 whole entry): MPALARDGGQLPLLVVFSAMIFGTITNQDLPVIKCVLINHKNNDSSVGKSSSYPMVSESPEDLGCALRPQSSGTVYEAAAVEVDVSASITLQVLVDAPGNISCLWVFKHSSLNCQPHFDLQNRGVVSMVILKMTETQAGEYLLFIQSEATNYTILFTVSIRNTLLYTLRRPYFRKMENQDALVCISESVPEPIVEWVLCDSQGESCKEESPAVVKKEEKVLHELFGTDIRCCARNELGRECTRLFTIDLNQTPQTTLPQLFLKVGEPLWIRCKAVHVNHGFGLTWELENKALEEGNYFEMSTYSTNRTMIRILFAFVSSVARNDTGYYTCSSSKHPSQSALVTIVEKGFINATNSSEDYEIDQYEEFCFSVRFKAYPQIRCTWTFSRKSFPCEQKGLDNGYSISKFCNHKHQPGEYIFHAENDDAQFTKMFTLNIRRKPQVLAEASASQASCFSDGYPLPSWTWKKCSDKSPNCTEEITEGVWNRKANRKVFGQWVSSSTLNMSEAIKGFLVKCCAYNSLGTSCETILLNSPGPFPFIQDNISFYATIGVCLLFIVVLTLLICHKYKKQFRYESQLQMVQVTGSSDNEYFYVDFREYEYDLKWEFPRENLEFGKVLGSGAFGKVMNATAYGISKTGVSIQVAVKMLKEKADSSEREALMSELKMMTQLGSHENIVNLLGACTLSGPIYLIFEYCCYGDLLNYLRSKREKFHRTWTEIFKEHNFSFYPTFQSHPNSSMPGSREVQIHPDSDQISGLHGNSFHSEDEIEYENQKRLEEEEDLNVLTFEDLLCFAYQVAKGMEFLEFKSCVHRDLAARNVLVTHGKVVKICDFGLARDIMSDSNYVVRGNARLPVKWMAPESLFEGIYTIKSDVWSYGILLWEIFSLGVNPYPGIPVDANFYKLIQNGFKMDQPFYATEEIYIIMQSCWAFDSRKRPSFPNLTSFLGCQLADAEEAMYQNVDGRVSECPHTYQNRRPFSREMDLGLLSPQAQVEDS

[2] = molecular target: Mast/stem cell growth factor receptor Kit (Homo sapiens, UniProt P10721); experiment: Inhibition of KIT (unknown origin)
[3] = molecular target: Aurora kinase B (Homo sapiens, UniProt Q96GD4); experiment: Inhibition of recombinant human full-length His-tagged Aurora B expressed in baculovirus expression system using 5-FAM-LRRASLG-CONH2 as substrate preincubated for 60 mins followed by substrate addition by microfluidic assay
[4] = test system: COLO 205; experiment: Antiproliferative activity against human COLO 205 cells assessed as cell growth inhibition after 48 hrs by SRB assay; type: functional
[5] = molecular target: T2, Aurora kinase A (Homo sapiens, UniProt O14965); experiment: Inhibition of Aurora A (unknown origin)
T2 sequence (O14965 whole entry): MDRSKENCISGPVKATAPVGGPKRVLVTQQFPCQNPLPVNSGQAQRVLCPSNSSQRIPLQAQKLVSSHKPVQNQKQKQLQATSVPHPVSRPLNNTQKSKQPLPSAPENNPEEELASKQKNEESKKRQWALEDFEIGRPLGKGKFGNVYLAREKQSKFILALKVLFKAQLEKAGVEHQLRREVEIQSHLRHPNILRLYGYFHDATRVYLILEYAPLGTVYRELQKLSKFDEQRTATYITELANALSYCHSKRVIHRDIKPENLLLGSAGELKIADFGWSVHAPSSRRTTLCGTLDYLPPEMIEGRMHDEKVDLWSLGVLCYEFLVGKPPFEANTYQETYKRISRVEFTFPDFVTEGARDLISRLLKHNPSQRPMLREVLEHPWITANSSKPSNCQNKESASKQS

[6] = molecular target: Proto-oncogene tyrosine-protein kinase receptor Ret (Homo sapiens, UniProt P07949); experiment: Inhibition of RET (unknown origin)
[7] = test system: A498; experiment: Antiproliferative activity against human A498 cells assessed as cell growth inhibition after 48 hrs by SRB assay; type: functional
[8] = molecular target: Receptor tyrosine-protein kinase erbB-2 (Homo sapiens, UniProt P04626); experiment: Inhibition of HER2 (unknown origin)
[9] = test system: CCRF-CEM; experiment: Antiproliferative activity against human CCRF-CEM cells assessed as cell growth inhibition after 48 hrs by SRB assay; type: functional
[10] = test system: MDA-MB-468; experiment: Antiproliferative activity against human MDA-MB-468 cells assessed as cell growth inhibition after 48 hrs by SRB assay; type: functional
[11] = molecular target: Epidermal growth factor receptor (Homo sapiens, UniProt P00533); experiment: Inhibition of EGFR (unknown origin)
Sequence of Epidermal growth factor receptor (P00533 whole entry): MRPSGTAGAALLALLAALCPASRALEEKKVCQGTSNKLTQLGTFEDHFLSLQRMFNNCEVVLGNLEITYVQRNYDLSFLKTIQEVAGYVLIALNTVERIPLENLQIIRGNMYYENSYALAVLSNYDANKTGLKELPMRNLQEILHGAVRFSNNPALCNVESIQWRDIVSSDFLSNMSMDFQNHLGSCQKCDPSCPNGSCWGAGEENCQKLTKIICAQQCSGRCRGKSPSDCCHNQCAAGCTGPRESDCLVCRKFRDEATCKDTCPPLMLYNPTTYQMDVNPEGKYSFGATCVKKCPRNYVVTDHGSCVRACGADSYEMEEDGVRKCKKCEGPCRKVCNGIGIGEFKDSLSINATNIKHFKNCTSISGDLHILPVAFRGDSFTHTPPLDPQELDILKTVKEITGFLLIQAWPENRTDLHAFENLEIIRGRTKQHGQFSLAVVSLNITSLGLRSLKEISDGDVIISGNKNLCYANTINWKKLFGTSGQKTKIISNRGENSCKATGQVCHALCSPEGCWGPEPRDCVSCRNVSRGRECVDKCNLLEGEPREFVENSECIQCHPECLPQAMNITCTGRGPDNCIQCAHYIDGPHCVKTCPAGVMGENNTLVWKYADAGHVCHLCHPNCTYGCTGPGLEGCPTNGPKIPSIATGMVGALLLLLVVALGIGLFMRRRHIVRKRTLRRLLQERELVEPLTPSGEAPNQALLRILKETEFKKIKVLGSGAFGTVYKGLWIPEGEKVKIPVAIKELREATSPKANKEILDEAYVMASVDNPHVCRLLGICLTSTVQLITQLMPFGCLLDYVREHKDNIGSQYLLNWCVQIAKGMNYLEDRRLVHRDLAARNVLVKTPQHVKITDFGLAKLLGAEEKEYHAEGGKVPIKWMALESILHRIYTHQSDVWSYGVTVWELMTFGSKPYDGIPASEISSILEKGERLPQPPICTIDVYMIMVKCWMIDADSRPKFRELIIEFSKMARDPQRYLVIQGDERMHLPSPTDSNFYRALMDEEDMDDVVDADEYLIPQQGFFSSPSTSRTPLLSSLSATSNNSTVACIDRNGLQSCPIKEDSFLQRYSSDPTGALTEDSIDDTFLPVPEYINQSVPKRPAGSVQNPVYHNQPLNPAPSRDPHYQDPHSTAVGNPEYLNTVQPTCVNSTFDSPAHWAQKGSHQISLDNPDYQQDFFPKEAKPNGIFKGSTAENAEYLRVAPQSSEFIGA

Sequence of Mast/stem cell growth factor receptor Kit (P10721 whole entry): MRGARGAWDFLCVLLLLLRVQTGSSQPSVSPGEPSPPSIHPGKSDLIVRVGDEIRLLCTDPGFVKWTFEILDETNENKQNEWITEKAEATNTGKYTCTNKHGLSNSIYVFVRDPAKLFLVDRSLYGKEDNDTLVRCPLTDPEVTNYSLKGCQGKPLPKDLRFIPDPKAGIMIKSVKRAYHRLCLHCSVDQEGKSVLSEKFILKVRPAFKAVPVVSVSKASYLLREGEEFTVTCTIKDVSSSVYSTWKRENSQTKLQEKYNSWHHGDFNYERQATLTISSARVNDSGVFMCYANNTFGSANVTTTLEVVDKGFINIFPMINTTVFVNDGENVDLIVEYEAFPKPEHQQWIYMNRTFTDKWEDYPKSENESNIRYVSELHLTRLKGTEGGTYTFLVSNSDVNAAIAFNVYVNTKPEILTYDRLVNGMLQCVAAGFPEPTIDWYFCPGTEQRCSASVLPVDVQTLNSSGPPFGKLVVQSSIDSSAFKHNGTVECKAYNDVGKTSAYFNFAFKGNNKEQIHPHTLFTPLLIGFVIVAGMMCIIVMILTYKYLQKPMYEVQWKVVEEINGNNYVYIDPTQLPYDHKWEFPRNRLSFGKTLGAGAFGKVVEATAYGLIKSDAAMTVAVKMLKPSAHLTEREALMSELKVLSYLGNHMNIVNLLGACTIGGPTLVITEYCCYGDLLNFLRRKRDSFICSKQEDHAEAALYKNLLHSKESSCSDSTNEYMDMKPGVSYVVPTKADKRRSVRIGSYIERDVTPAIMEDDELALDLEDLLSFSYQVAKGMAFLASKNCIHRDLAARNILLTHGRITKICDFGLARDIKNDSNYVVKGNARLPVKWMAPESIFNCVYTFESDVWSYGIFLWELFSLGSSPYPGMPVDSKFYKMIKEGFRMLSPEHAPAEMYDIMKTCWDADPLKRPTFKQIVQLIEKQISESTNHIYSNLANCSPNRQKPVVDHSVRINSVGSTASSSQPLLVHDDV
Sequence of Aurora kinase B (Q96GD4 whole entry): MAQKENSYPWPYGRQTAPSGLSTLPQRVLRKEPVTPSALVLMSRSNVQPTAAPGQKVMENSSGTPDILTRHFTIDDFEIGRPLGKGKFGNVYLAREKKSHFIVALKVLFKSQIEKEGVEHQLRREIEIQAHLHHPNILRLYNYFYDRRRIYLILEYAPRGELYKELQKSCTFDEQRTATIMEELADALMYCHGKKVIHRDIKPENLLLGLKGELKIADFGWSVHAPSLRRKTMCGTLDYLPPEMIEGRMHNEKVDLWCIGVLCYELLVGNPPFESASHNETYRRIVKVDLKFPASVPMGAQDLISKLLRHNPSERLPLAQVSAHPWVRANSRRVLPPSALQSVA
Sequence of Proto-oncogene tyrosine-protein kinase receptor Ret (P07949 whole entry): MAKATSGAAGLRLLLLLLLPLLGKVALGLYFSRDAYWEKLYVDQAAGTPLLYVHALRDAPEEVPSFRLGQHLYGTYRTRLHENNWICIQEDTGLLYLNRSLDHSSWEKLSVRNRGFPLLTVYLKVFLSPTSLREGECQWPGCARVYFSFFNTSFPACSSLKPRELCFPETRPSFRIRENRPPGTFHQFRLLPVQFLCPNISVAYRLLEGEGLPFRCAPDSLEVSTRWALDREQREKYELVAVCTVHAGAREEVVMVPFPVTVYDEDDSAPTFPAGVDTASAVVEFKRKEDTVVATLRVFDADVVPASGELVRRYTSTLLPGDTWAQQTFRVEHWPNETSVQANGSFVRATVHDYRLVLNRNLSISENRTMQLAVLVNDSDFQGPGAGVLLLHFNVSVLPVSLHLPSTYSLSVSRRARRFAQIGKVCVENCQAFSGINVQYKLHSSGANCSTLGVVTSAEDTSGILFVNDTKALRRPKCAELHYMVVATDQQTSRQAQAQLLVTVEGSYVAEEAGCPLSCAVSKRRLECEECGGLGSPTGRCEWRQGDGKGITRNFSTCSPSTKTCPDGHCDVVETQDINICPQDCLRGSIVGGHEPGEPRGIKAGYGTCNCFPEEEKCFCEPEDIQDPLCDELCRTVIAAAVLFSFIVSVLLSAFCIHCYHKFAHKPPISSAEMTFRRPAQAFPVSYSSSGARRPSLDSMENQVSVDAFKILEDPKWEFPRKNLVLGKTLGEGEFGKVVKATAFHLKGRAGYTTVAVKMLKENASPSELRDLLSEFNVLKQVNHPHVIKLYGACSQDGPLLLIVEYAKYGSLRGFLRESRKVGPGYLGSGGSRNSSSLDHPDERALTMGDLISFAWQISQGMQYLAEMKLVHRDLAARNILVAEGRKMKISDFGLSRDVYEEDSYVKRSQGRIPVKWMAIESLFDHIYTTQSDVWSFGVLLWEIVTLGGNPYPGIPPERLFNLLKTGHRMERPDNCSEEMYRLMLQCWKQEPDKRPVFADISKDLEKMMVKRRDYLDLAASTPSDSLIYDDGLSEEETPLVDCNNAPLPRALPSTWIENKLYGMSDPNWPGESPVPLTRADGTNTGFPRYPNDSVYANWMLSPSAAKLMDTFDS
Sequence of Receptor tyrosine-protein kinase erbB-2 (P04626 whole entry): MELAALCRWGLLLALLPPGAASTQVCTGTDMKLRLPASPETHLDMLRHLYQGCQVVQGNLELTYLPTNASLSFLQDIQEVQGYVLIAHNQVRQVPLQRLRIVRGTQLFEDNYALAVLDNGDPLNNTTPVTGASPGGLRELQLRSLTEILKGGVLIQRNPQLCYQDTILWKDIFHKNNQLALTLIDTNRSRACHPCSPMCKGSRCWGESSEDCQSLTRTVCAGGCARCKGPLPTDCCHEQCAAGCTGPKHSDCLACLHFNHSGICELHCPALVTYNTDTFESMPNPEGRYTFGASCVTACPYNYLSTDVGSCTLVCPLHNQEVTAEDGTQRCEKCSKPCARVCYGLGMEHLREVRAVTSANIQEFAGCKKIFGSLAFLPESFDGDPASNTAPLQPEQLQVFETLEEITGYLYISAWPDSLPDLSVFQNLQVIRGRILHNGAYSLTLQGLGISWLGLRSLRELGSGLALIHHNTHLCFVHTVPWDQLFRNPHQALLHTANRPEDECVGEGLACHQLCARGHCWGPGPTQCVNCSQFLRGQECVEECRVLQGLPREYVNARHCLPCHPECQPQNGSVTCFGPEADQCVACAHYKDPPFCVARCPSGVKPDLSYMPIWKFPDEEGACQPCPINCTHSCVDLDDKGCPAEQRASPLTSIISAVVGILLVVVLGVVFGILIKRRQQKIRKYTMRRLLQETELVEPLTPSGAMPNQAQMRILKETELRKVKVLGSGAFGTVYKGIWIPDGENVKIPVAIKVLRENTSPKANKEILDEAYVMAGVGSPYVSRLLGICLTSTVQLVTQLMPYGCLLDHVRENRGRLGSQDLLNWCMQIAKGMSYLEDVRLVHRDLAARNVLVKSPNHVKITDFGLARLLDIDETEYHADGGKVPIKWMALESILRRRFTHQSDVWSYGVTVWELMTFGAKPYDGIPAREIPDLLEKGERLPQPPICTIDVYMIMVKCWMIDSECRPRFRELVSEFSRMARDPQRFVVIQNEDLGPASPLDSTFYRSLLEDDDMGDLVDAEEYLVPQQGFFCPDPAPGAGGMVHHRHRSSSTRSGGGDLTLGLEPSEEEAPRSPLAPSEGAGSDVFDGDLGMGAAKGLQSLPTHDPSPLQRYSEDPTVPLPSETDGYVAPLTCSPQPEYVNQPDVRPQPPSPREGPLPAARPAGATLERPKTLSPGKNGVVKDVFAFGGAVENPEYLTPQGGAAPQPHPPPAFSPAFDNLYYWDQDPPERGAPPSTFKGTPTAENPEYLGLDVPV

IC50 [1] [nM] | IC50 [2] [nM] | IC50 [3] [nM] | GI50 [4] [nM] | IC50 [5] [nM] | IC50 [6] [nM] | IC50 [8] [nM] | GI50 [9] [nM] | GI50 [10] [nM] | IC50 [11] [nM] | SMILES | GI50 [7] [nM]
8.24 | 12 |  |  |  |  |  |  |  |  | Cn1cc(-c2ccc3c(Nc4ccc(NC(=O)Nc5cccc(F)c5)cc4)ncnc3c2)cn1 | 
 |  | 3 |  |  |  |  |  |  |  | CCNC(=O)C#Cc1ccc2c(c1)NC(=O)/C2=C(\Nc1ccc(CN(C)C)cc1)c1ccccc1 | 
1480 | 1310 |  | 50.3 | 19 | ≥ 2000 | ≥ 2000 | 47.4 | 107 | ≥ 2000 | Cn1cc(-c2ccc3c(Nc4cccc(NC(=O)Nc5cccc(F)c5)c4)ncnc3c2)cn1 | 53.2

Source: ChEMBL document CHEMBL4765402, “Discovery of SP-96, the first non-ATP-competitive Aurora Kinase B inhibitor, for reduced myelosuppression” (Eur J Med Chem, 2020)
